Assay results from US11197862B2, “Methods of preventing toxicity of platinum drugs” (XOMICS BIOPHARMA, INC., priority 2015, dated 2021).
“Also recorded” adds a separate entry of the source.

Columns and labels:
[1] = target: T1, OCT2 over OCT1, OCT3 and MATE1 (Homo sapiens, UniProt O15244); assay: Inhibition of OCT2-mediated oxaliplatin transport in 100% human serum or HBSS containing 4% BSA (IC50,app); conditions: human, MDCK-II cells transfected with human transporters, fold higher potency (selectivity) for OCT2 over OCT1, OCT3 and MATE1 in transporting oxaliplatin, from IC50,app of Table 4
T1 sequence (O15244 1-555): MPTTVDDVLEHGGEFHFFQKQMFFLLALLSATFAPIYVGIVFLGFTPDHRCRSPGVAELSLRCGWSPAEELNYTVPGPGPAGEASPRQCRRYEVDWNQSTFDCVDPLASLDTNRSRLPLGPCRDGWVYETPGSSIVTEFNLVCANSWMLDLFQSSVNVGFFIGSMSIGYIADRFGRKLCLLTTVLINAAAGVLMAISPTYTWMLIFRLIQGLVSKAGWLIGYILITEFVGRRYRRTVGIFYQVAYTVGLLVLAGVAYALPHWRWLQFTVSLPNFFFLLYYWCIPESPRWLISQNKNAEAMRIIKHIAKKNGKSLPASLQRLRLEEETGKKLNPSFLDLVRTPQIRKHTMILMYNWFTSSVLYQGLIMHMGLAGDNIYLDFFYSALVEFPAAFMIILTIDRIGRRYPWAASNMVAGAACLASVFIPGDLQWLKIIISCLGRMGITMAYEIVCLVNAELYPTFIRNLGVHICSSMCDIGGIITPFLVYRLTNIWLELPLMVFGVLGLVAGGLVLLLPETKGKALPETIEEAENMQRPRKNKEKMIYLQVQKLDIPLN
Source text: (§1) Fully confluent MDCK cell monolayers were transfected with either cDNA plasmids encoding the human transporter to be tested or a GFP control. […] The cells were then washed with ice-cold PBS and lysed with 50:50 acetonitrile:H2O. Intracellular content of the substrate was quantified by LC/MS/MS or a MicroBeta radiometric plate reader.

[2] = tested on: Balb/c mice exposed to chronic treatment with Oxaliplatin; assay: Cold Plate Test in chronic oxaliplatin neuropathy model; assay type: in vivo, mouse; conditions: for Cold Plate Test pain signs after third injection / Cold Plate Test pain signs at the end of treatment (eight injections): OXA 3.5 mg/kg iv ± BFMD 30 mg/kg ip + 15 mg/kg iv; for Cold Plate Test pain signs after third injection: 3 cycles
Procedure: Cold Plate Test was used to determine the alterations in cold temperature related pain perception and their changes due to pharmacological treatment. Cold Plate Test was performed by using an apparatus (35100—Hot/Cold Plate. Ugo Basile instruments) composed by a Plexiglas cylinder and a thermostatic plate, able to reach variable temperatures. The mice were placed on the plate set at +4° C., free to move and walk. Two blinded experimenters simultaneously determine the number of pain signs (e.g. jumping, licking, etc.) in a trial of 5 minutes.

[3] = tested on: cells co-expressing OCT2 and MATE1; assay: Intracellular oxaliplatin content in cells co-expressing OCT2 and MATE1; assay type: cell-based; conditions: oxaliplatin 100 μM in 4% BSA HBSS, 90 min
Source text: In most naturally occurring cells, uptake transporters co-exist with efflux transporters. It is the interplay between the uptake and efflux transporters that determines the net intracellular accumulation of a substrate. One example is in the proximal tubule epithelial cells in the kidney, where the basolaterally expressed transporters, mainly OCT2, work in concert with the apically expressed MATE1 and MATE2K [5]. […] Cells with single expression of OCT2 or GFP mock were also used as a control.

OCT2 and MATE1 [4] = assay: Buflomedil inhibition of OCT2 and MATE1 with cisplatin or oxaliplatin as substrate (FIG. 15B); assay type: cell-based, human
[5] = tested on: MDCK cells expressing OCT2, MATE1 and MATE2K; assay: LDH cytotoxicity of oxaliplatin in MDCK-II triple-transporter model; conditions: for effect on oxaliplatin induced cytotoxicity in OCT2 expressing cells: buflomedil 3 and 6 μM, dolutegravir 10 μM, erlotinib 6 μM, cimetidine 6 μM, FIG. 6
Procedure: A triple-transporter model for OCT2(SLC22A2), MATE1(SLC47A1), and MATE2-K(SLC47A2) was created by transfecting fully confluent MDCK-II cell monolayers with DNA mixture containing the plasmids encoding OCT2, MATE1, and MATE-2K at concentrations of 40, 15, and 5 ng/μl, respectively. The OCT2 was expressed on the basolateral cell membrane, and MATE1 and MATE2-K were expressed on the apical side of the cells. […] The apical medium was adjusted to pH 6.7 with 25 mM of 2-(N-morpholino) ethanesulfonic acid (MES).
After removal of the media, a drug-free medium was added in both sides. After incubation 24 hours, the medium was collected, and the lactate dehydrogenase (LDH) activity in the medium was measured using an LDH cytotoxicity assay kit (G-Biosciences. St. Louis, Mo.; or Biochain, Newark, Calif.), according to the manufacturers' instructions. Cytotoxicity was evaluated by measuring the LDH activity in the medium.
Cytotoxicity was tested using the same procedure described above.

HT-29 cells = assay: Anti-proliferation study (SRB assay) in HT-29 cells; conditions: for effect on anti-tumor potency of gemcitabine in HT-29: buflomedil 6 μM, FIG. 13; for effect on anti-tumor potency of 5-FU in HT-29: buflomedil 6 uM, dolutegravir 3, 6 and 9 μM, FIG. 12
Procedure: The potency was determined by the sulforhodamine B (SRB) assay in 96-well plates. […] Seeding density was 3000 cells/well for both cell lines.

OCT2 and MATE1 [6] = assay: Buflomedil inhibition of OCT2 and MATE1 with metformin as substrate (FIG. 15A); assay type: cell-based, human
MATE1 = target: T2, MATE1 (Homo sapiens, UniProt Q96FL8); assay: Inhibition of MATE1-mediated oxaliplatin transport in human serum or 4% BSA HBSS
T2 sequence (Q96FL8 1-570): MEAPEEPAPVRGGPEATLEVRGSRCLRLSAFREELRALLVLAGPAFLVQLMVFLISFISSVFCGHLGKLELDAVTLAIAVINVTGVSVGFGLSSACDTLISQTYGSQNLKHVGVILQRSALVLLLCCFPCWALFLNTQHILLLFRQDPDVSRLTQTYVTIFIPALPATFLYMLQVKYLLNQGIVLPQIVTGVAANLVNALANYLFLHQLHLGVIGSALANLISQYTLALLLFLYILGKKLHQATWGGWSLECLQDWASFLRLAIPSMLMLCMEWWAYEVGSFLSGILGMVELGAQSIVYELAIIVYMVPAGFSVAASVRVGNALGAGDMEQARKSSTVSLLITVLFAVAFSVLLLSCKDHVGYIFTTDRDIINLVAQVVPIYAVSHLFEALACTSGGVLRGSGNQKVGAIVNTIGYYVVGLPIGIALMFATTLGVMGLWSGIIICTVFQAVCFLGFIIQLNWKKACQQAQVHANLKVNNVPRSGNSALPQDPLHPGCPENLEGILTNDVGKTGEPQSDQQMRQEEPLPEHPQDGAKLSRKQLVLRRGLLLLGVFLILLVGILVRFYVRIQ
Source text: as §1

MATE2K = MATE2K (Homo sapiens, UniProt Q86VL8); assay: Inhibition of MATE2K-mediated oxaliplatin transport in human serum or 4% BSA HBSS
Source text: as §1

[7] = tested on: male wistar rats treated with cisplatin; assay: Cisplatin nephrotoxicity in Wistar rats (Example 9); assay type: in vivo, rat; conditions: co-administration with cisplatin 11 mg/kg IV; 72 hrs post treatment; expected
OCT2 = target: T3, OCT2 (Homo sapiens, UniProt O15244); assay: Inhibition of OCT2-mediated ASP+ uptake (Kido et al., Giacomini group); conditions: human, cell line expressing human OCT2 (cell line not given), probe ASP+ 5 μM
T3 sequence (O15244 1-555): T1 sequence (O15244 1-555)

[8] = Mortality, clinical observations and body weight in the chronic model; assay type: in vivo, mouse; conditions: BFMD 30 mg/kg ip + 15 mg/kg iv ± OXA 3.5 mg/kg iv, twice a week for 4 weeks; n=12/group

Chain of MATE2K (Q86VL8 1-566 isoform Q86VL8-3): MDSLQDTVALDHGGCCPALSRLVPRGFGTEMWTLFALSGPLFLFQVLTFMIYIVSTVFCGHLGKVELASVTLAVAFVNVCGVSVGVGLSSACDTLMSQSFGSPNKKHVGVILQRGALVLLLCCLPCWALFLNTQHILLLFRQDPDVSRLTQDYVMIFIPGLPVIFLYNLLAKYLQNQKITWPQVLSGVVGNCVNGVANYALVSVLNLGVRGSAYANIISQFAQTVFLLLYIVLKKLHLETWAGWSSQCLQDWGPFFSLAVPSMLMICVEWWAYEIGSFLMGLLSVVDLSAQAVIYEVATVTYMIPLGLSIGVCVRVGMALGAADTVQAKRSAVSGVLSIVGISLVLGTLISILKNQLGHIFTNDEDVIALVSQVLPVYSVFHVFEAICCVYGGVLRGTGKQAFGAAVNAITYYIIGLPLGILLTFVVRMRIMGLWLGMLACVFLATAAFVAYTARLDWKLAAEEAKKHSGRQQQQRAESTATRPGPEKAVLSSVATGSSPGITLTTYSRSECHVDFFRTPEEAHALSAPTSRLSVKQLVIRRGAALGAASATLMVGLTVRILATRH

SMILES | selectivity ratio [1] | Cold Plate Test pain signs after third injection ([2]; listed as BFMD) | Cold Plate Test pain signs after third injection ([2]; listed as buflomedil) | Cold Plate Test pain signs at the end of treatment (eight injections) ([2]; 8 cycles, listed as BFMD) | Cold Plate Test pain signs at the end of treatment (eight injections) ([2]; 8 cycles, listed as buflomedil) | cold allodynia (cold plate test) ([2]; buflomedil 80 mg/kg po 2 hours before OXA, 8 cycles, n=3/group) | cellular accumulation of oxaliplatin in cells co-expressing OCT2 and MATE1 [3] | difference in IC50s between oxaliplatin and cisplatin as substrate (OCT2 or MATE1) (OCT2 and MATE1 [4]) | selectivity toward OCT2 over MATE1, cisplatin or oxaliplatin as substrate (OCT2 and MATE1 [4]) | IC50 ([5]; Canis lupus familiaris, MDCK, read-out: IC50 for reduction of oxaliplatin-induced cytotoxicity) [µM] | reduction of cytotoxicity of 100 μM oxaliplatin ([5]; buflomedil 3-1000 μM, LDH release, FIG. 5) | effect on oxaliplatin induced cytotoxicity in OCT2 expressing cells [5] | effect on anti-tumor potency of gemcitabine in HT-29 (HT-29 cells) | effect on anti-tumor potency of 5-FU in HT-29 (HT-29 cells) | inhibition selectivity between OCT2 and MATE1, metformin as substrate (OCT2 and MATE1 [6]) | IC50 (MATE1) [µM] | IC50 (MATE2K) [µM] | serum BUN values [7] | potency estimated from few doses (OCT2) [µM] | mortality [8]
COc1cc(OC)c(C(=O)CCCN2CCCC2)c(OC)c1 [Buflomedil, 4-pyrrolidin-1-yl-1-(2,4,6-trimethoxyphenyl)butan-1-one] | > 10 | only the group treated with OXA alone showed a significant increase in pain signs | effective on reducing cold allodynia | significant decrease in pain signs versus OXA alone | effective on reducing cold allodynia | effective on reducing mechanical (FIG. 30A) and cold (FIG. 30B) allodynia; also recorded: showed protective effects against OXAIPN | reduced cellular accumulation of oxaliplatin | nearly identical IC50s; also recorded: no/minimal difference in its IC50s | great selectivity toward OCT2 | 6 | reduced cytotoxicity of 100 μM Oxaliplatin in OCT2-expressing cells in a dose-dependent fashion | significantly reduced oxaliplatin (OXA) induced cytotoxicity | did not impact the anti-tumor effect of 5-FU and gemcitabine; also recorded: did not affect anti-tumor potency of gemcitabine | did not impact the anti-tumor effect of 5-FU and gemcitabine; also recorded: did not affect anti-tumor potency of 5-FU | no inhibition selectivity between OCT2 and MATE1 | 32.7 ± 5.4 | 84 ± 23.1 | lowers the BUN values | < 0.1 | Two animals (BFMD and OXA+BFMD groups) died after the first administration; also recorded: one animal (OXA+BFMD group) died after the last administration
C[C@@H]1CCO[C@H]2Cn3cc(C(=O)NCc4ccc(F)cc4F)c(=O)c(O)c3C(=O)N12 [Dolutegravir] | ≥ 10 | – | – | – | – | – | – | – | – | – | – | significantly reduced oxaliplatin (OXA) induced cytotoxicity | did not impact the anti-tumor effect of 5-FU and gemcitabine | did not impact the anti-tumor effect of 5-FU and gemcitabine; also recorded: did not affect anti-tumor potency of 5-FU | – | – | – | – | – | –
Clc1ccc(COC(Cn2ccnc2)c2ccc(Cl)cc2Cl)c(Cl)c1 (stereo not drawn) [Miconazole] | – | – | – | – | – | – | – | – | – | – | – | – | – | – | – | > 100 | > 100 | – | 2 | –
